Test results as given in paper PMC5446891, “Inhibition of α-Amylases by Condensed and Hydrolysable Tannins: Focus on Kinetics and Hypoglycemic Actions” (Enzyme Research, 2017).

How the values were obtained:
[1] = target: T1, porcine pancreatic α-amylase (Sus scrofa, UniProt P00690); set-up: method as in doi:10.1016/j.foodres.2013.12.004, PMID 8944767; conditions: cited from earlier work
T1 construct: purchased Sigma-Aldrich Co. Type VI-B
T1 sequence (P00690 16-511): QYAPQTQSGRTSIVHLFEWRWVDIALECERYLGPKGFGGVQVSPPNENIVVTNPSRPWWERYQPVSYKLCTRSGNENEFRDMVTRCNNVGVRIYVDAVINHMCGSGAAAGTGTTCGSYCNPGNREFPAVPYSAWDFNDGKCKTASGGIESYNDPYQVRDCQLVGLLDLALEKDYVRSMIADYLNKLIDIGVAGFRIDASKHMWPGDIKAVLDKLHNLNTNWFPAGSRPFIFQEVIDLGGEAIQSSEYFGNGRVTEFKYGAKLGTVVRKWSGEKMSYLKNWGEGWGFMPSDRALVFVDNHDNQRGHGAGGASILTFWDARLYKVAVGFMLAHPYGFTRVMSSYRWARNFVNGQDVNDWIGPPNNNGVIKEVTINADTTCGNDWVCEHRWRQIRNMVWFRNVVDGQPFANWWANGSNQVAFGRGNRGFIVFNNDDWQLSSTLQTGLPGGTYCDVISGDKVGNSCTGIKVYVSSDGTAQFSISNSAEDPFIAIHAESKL

[2] = tested on: intestinal starch absorption (in vivo α-amylase); assay: glycemic levels of rats after starch administration; set-up: species or system Wistar rats; conditions: intragastric with starch 1 g/kg, 60 min; acarbose 50 mg/kg, tannins 100-500 mg/kg
Description: Male healthy Wistar rats weighing 200-250 g were used in all experiments. The rats were housed, fed, and treated in accordance with the universally accepted guidelines for animal experimentation. Prior to the investigations, the animals were kept for one week under standard environmental conditions. Throughout the experimentation period, the rats were maintained in single cages and had access to standard pelleted diet and water ad libitum. Food was withdrawn 18 h before the experiments. All experiments involving rats were done in accordance with the worldwide accepted ethical guidelines for animal experimentation and previously approved by the Ethics Committee for Animal Experimentation of the University of […]á (Protocol number 067/2014-CEUA-UEM). Rats were divided into 9 groups (n = 4 rats per group). To group I (positive control) commercial corn starch (1 g per kg body weight) was given intragastrically. Group II (negative control) received only tap water. […] Fasting blood glucose levels were determined before the administration of starch and amylase inhibitors (0 time). […] Blood glucose from cut tail tips was determined using Accu-Chek® Active Glucose Meter. […] The areas were determined with the corresponding data in Figures 6(a) and 6(b) using the numerical integration procedures of the Scientist Software from MicroMath Scientific Software (Salt Lake City, UT). […]

In the case of `C[C@H]1O[C@H](O[C@H]2[C@H](O)[C@@H](O)[C@@H](O[C@H]3[C@H](O)[C@@H](O)C(O)O[C@@H]3CO)O[C@@H]2CO)[C@H](O)[C@@H](O)[C@@H]1N[C@H]1C=C(CO)[C@@H](O)[C@H](O)[C@H]1O` (some centres unmarked) [acarbose], the “inhibitory potency compared with the tannins” value [1] is given as “much better inhibitor of the pancreatic α-amylase than the tannins” and the “effect on glycemic levels after starch administration” value [2] is given as “diminished the increase in blood glucose concentration”.
